Laboratory results reported in US20230129745A1, “COMPOUNDS, COMPOSITIONS, AND METHODS TO TREAT METABOLIC DISEASE” (Board of Supervisors of Louisiana State University and …, priority 2020, published 2023).
Blank lines part the entries; values can stand above or below the molecule they belong to.

Key:
3T3-L1 adipocytes [1] = details: published data; cited from earlier work
PPARγ = molecular target: T1, PPARγ (Homo sapiens, UniProt P37231); details: Choi et al. 2011; cited from earlier work
T1 construct: NIH-3T3 cells stably transfected with full-length PPARγ (A); expressed in transfected cells
T1 sequence (P37231 1-505): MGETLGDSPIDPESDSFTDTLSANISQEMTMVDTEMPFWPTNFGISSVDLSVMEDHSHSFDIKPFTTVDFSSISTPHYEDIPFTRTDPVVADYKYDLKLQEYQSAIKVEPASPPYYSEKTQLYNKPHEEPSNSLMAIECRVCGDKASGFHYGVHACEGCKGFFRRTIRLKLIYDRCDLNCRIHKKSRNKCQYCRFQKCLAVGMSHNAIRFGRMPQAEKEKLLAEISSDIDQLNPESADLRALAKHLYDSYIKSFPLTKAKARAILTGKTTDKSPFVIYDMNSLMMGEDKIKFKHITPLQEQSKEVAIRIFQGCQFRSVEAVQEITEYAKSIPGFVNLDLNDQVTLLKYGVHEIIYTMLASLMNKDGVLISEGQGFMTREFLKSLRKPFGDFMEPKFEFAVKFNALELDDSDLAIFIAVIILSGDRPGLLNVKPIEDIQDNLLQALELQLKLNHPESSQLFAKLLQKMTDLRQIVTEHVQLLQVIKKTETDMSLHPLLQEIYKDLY

3T3-L1 adipocytes [2] = experiment: TNFα-induced lipolysis (glycerol release) in 3T3-L1 adipocytes; format: cell-based, murine; details: 2.5, 10, or 25 μM, 3-day pretreatment; 0.75 nM TNFα
Procedure: Fully differentiated 3T3-L1 adipocytes pretreated for three days with 50 μg/ml SCO or varying doses of test compounds (2.5, 10, or 25 μM), then overnight with 0.75 nM TFNα (or vehicle). After 4 hours, the conditioned medium was collected and assayed for glycerol. Data was expressed as fold-change vs TNFα-only treatment. Data from no-TNFα controls and each test compound were analyzed by one-way ANOVA. **P<0.01, ****P<0.0001 vs TNFα-only condition.
Cell Culture and Treatments. 3T3-L1 preadipocytes (murine) were cultured as previously described,^3 and induced to differentiate two days after reaching confluence. For experiments using mature adipocytes, cells were induced with a standard methylxanthine-dexamethasone-insulin (MDI) cocktail, which contains 0.5 mM isobutylmethylxanthine (IBMX), 1 μM dexamethasone (DEX), and 1.72 μM insulin in high-glucose Dulbecco's Modified Eagle Medium (DMEM) supplemented with 10% fetal bovine serum (FBS). IBMX, DEX, insulin, and DMEM were obtained from Sigma-Aldrich (St. Louis, Mo.), and FBS from Hyclone (GE Healthcare Life Sciences, Logan, Utah). […]
FABP4 secretion and lipolysis assays. […] Conditioned media samples were collected after four hours and analyzed for FAPB4 content by immunoblotting. Lipolysis was also assessed by measuring glycerol concentrations in the samples, using free glycerol reagent from Sigma-Aldrich.

3T3-L1 cells = experiment: Lipid accumulation (Oil Red O) in differentiating 3T3-L1 cells; format: cell-based, murine; details: for dose dependence of lipid accumulation activity / lipid accumulation (Oil Red O staining): 2.5, 10, and 25 μM; for lipid accumulation (Oil Red O staining): relative to DMSO; for adipogenesis (Oil Red O and AdipoQ, Fabp4, Pparγ expression): 2.5, 10, or 25 μM, half-strength MDI, FIG. 27
Procedure: Cells were then either fixed and stained with Oil Red O (4 days post-differentiation) (panel A), or harvested (3 days post differentiation) for RNA isolation and gene expression analysis of adiponectin (AdipoQ), fatty acid binding protein 4 (Fabp4), or Ppary (panels B-D). All treatments compared to their respective DMSO controls. The Effects of SCO and ROSI were analyzed by t-test, while the effects of individual test compounds were analyzed by one-way ANOVA. *[…], **P<0.01, ***P<0.001, ****P<0.0001 vs DMSO controls.
Cell Culture and Treatments. 3T3-L1 preadipocytes (murine) were cultured as previously described,^3 and induced to differentiate two days after reaching confluence. For experiments using mature adipocytes, cells were induced with a standard methylxanthine-dexamethasone-insulin (MDI) cocktail, which contains 0.5 mM isobutylmethylxanthine (IBMX), 1 μM dexamethasone (DEX), and 1.72 μM insulin in high-glucose Dulbecco's Modified Eagle Medium (DMEM) supplemented with 10% fetal bovine serum (FBS). IBMX, DEX, insulin, and DMEM were obtained from Sigma-Aldrich (St. Louis, Mo.), and FBS from Hyclone (GE Healthcare Life Sciences, Logan, Utah). For differentiation experiments, cells were induced with half-strength MDI cocktail […]. In both cases, cells were fed with high-glucose DMEM+10% FBS with 0.43 μM insulin three days following MDI induction. Test compounds were dissolved in dimethylsulfoxide (DMSO) as 1000× stocks. For differentiation experiments, cells were treated with the compounds (or DMSO vehicle as a control) at the time of induction and at the first feeding there after (3 days post-MDI). For lipolysis experiments on mature adipocytes, cells were fed with high-glucose DMEM+10% FBS 6 days after MDI and treated with test compounds or DMSO vehicle for three days. On the third day cells were also treated overnight with 0.75 nM tumor necrosis factor alpha (TNFα) (Life Technologies, Carlsbad, Calif.) or its vehicle [0.1% bovine serum albumin (BSA) in phosphate buffered saline (PBS)]. The following morning, the culture medium was replaced with lipolysis incubation medium (low-glucose DMEM+2% BSA) and 0.75 nM TNFα(or vehicle). After 4 hours, conditioned medium and cell lysates were collected.
Lipid Accumulation Assay. Five days after MDI induction, cell monolayers were fixed in 10% neutral buffered formalin (ThermoFisher, Waltham, Mass.) and stained with the neutral lipid stain, Oil Red O (ORO). Plates were scanned to generate images of staining. The ORO was then eluted in isopropyl alcohol, and absorbance of eluates was measured at 520 nm for quantitation.

[3] = LC-MS of serum from mice fed HFD containing 1% Artemisia scoparia extract; format: in vivo; details: archived serum, SCO feeding study in high fat-fed mice, after 4-hour fast
Procedure: Serum samples of control or SCO-treated mice were analyzed directly without enzyme hydrolysis after protein precipitation (top 2 panels) or after glucuronidase enzyme digestion followed by solvent partitioning (lower 2 panels). Chromatograms were created using selected ion monitoring of m/z 315.159-315.161 specific to capillartemisins. In addition to specific mass, the identity of capillartemisin A was confirmed using our in-house library of spectral data that was confirmed using NMR spectroscopy.
To conduct in vivo assessments of SP's bioavailability or pharmacokinetics, we sent six-year-old archived serum samples from our last SCO feeding study in high fat-fed mice for analysis. These samples were collected at the time of sacrifice after a 4-hour fast, in conditions that were not designed for detection of SCO compounds in the circulation. […] However, capillartemisin A was detected (FIG. 12).

caspase 1 = molecular target: T2, caspase 1 (Mus musculus, UniProt P29452); details: literature; cited from earlier work
T2 sequence (P29452 119-402): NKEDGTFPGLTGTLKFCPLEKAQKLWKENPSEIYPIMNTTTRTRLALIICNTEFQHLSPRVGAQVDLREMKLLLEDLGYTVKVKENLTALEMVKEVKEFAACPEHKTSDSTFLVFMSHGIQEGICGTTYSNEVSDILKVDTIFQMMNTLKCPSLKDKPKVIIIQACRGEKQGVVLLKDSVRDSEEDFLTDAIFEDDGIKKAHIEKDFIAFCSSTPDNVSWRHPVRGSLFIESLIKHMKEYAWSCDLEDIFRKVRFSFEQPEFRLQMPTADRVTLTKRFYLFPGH

[4] = 14 days of treatment, db/db mice; cited from earlier work

Structure (SMILES): CC(C)=CCc1cc(/C=C/C(=O)O)cc(CC=C(C)C)c1O [Artepillin C]
adipogenesis / adipocyte differentiation (3T3-L1 adipocytes [1]): enhance adipogenesis | PPARγ activation (PPARγ): activate

detection in serum (LC-MS) [3]: detected
Structure (SMILES): CC(C)=CCc1cc(/C=C/C(=O)O)cc(C/C=C(\C)CO)c1O [Compound 2, capillartemisin A]
inhibition of TNFα-induced lipolysis (glycerol release) (3T3-L1 adipocytes [2]): not able to significantly mitigate | dose dependence of lipid accumulation activity (3T3-L1 cells): active in a dose-dependent manner | lipid accumulation (Oil Red O staining) (3T3-L1 cells): enhanced lipid accumulation | adipogenesis (Oil Red O and AdipoQ, Fabp4, Pparγ expression) (3T3-L1 cells): promote adipogenesis

detection in serum (LC-MS) [3]: did not detect
Structure (SMILES): CC(C)=CCc1cc(/C=C/C(=O)O)cc(C/C=C(/C)CO)c1O [Compound 3, capillartemisin B]
inhibition of TNFα-induced lipolysis (glycerol release) (3T3-L1 adipocytes [2]): not able to significantly mitigate | dose dependence of lipid accumulation activity (3T3-L1 cells): best activity over the tested dose range | lipid accumulation (Oil Red O staining) (3T3-L1 cells): enhanced lipid accumulation | adipogenesis (Oil Red O and AdipoQ, Fabp4, Pparγ expression) (3T3-L1 cells): promote adipogenesis

Structure (SMILES): O=C(/C=C/c1ccc(O)c(O)c1)O[C@@H]1CC(O)(C(=O)O)C[C@@H](OC(=O)/C=C/c2ccc(O)c(O)c2)C1O (stereo partly drawn) [DEQA, 3,5-dicaffeoyl-epi-quinic acid]
adipogenesis / adipocyte differentiation (3T3-L1 adipocytes [1]): do not promote adipogenesis | caspase 1 activity (caspase 1): reduce

Structure (SMILES): CN(CCOc1ccc(CC2SC(=O)NC2=O)cc1)c1ccccn1 (stereo not drawn) [rosiglitazone]
hematocrit [4]: decreases hematocrit by as much as three percentage points
